Patent publication US20250177412A1, “SMALL-MOLECULE INHIBITORS TARGETING THE BOB1/OCT1 INTERFACE” (NANTES UNIVERSITE, priority 2022, published 2025)

Key:
[1] = biological target: T1, POU domain of OCT1 (POU1) (Homo sapiens, UniProt P14859); assay: Kd measurement (fluorescence emission spectra, Hill's coordinates); type: binding; details: 298.15 K
T1 construct: 6xHis (pET28 N-terminal histidine tag) (N); made in house; host or cells: E. coli BL21
T1 sequence (P14859 280-438): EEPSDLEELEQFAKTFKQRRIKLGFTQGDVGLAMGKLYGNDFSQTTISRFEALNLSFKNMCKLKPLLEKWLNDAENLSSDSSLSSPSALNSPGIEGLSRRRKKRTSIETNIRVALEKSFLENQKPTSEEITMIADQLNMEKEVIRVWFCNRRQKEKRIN

[2] = test system: B cells; assay: GZMB+ B cell expansion; type: cell-based, human; details: 10 μM added daily, day 3
Experimental: B cells were kept unstimulated (B resting) or stimulated (B expanded) for 24 hours with the expansion mixture containing F(ab′)2 anti-BCR, CpG ODN, CD40L, IL-2, and IL-21. FIG. 6A-B show the expression level of granzyme B measured as frequency (FIG. 6A) and by the MFI (FIG. 6B) in DMSO-treated (compound 005-) and 10 μM compound 005-treated resting (open circles) and expanded for 3 days (closed circles) B cells. […] Representative offset histogram overlays showing median fluorescence intensity of staining of gated live […] with cell proliferation dye (CPD) (FIGS. 6C, 6E and 6F). […]
Primary total human B cells (1×10^6 cells/mL) were prestimulated for ˜24 h with the cocktail containing 10 ng/mL of IL-21 (Miltenyi Biotec), 5 μg/mL of F(ab′)2 anti-BCR Abs (Jackson ImmunoResearch Laboratories Inc.), 50 ng/ml of CD40L (R&D systems), 1 μg/mL of CpG oligonucleotides (ODN 2006, Invivogen), and 50 U/mL of IL-2 (Novartis) as previously described, in the presence of vehicle (DMSO) or 10 μM compound 005. […] The capacity of B cells to suppress effector T cell proliferation was assessed as previously described. […] T cell proliferation was evaluated as the percentage of CPD-low T cells on day 3. […]

SMILES: Cc1ccc(NC(=O)C2CN(c3nc(NCCCc4ccc(F)cc4)nc(NCCC(=O)O)n3)c3ccccc3O2)cc1Cl (stereo not drawn) [compound 005, 3-((4-(2-((3-chloro-4-methylphenyl)carbamoyl)-2,3-dihydro-4H-benzo[b][1,4]oxazin-4-yl)-6-((3-(4-fluorophenyl)propyl)amino)-1,3,5-triazin-2-yl)amino)propanoic acid]
- Kd ([1]; POU1 3 μM): 1 nM
- ΔG (change of Gibb's energy) of binding ([1]; calculated from Kb): negative value
- GZMB expression [2]: did not affect
